From publication PMC5740061 (Nature Communications, 2017) come the findings set out here.

Entries after “also recorded” stand apart in the source; their conditions may differ. Where two headings read alike, the source gives them in different places. Bridge positions count the residues as written; N and C are the ends. Ends that are not written are not given here.

Data set [1] has as its target T1, TEAD (Homo sapiens, UniProt P28347).
T1 construct: GST; made in house; host or cells: Hi5 insect cells (baculovirus, pIEX-BAC3 vector)
Kind of data set: Surface display TEAD binding by flow cytometry (SDGF, 293F cells). The note with it: tetravalent staining, SDGF-TB1G1 cells.

In data set [2] the target is T2, YAP:TEAD (Homo sapiens, UniProt P28347). It is filed as biochemical. On the set-up: plasmid # 66853; host or cells: 293T cells, RIPA lysates.
Target sequence in this assay (P28347 whole entry): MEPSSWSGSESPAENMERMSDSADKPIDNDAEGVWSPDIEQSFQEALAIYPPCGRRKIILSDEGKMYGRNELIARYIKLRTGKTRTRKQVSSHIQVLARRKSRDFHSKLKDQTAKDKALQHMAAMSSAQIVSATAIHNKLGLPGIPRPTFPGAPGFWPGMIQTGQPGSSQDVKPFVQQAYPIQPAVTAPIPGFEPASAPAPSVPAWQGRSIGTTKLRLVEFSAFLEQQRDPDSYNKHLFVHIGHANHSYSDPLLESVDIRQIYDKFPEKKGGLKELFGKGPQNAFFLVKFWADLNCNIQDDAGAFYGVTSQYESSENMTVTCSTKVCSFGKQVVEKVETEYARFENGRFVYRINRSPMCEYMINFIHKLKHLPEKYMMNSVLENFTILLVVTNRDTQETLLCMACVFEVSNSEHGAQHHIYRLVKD
Data set [3] is described as follows: Reduction resistance of soluble optides (DTT or glutathione, RP-HPLC, LC/MS). It is filed as physicochemical. Particulars: for reduction with 10 mM DTT: soluble optide, SDS-PAGE, mass spectrometry.
Data set [4] concerns the target T2, YAP:TEAD. It is filed as binding. On the set-up: GST; made in house; host or cells: TEAD from Hi5 insect cells. The note with it: 293F cells expressing SDGF-YAP, 5 nM TEAD, 0-100 nM optide.
Target sequence in this assay (P28347 209-426): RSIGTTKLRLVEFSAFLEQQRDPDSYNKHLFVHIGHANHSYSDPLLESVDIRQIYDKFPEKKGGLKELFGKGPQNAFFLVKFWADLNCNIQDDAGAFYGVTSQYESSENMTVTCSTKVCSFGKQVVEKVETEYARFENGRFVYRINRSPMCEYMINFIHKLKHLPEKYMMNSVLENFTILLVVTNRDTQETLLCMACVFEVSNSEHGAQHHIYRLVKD
Data set [5] is classed as physicochemical. Particulars: SYPRO Orange, 0.1 mg/mL in PBS, 20 to 95 °C.
Data set [6] in a line: Circular dichroism thermostability. The note with it: 25-30 µM in 10 mM phosphate buffer pH 7.4, heated 20 to 95 °C at 2 °C per min, 220 nm. It is filed as physicochemical. The method, then:
Protein secondary structures were assessed using circular dichrosim (CD). CD spectra were measured with a Jasco J-720W spectropolarimeter using a 1.0 mm path length cell. Protein samples (25-30 µM) in 10 mM phosphate buffer (pH 7.4) were analyzed at a wavelength range of 190 to 260 nm. […] Data are expressed in terms of relative ellipticity [θ], reported in mdeg.
In general terms: CD spectra are sensitive to the conformation of chiral molecules.

In data set [7] the target is T1, TEAD. Kind of data set: Reduction resistance of surface displayed optides (GSH or DTT, then TEAD binding). It is filed as physicochemical. The note with it: 10 mM glutathione for 5 mins, then TEAD binding (20 nM, 2-step stain).
Data set [8] concerns HeLa cells. In words: Cell penetration of DyLight 488 labelled optide in HeLa cells. Particulars: 5 µM optide without dfTAT. It is filed as cell-based.
In data set [9] the target is T3, trypsin (Sus scrofa, UniProt P00761). In words: Protease stability in surface display (SDPR), trypsin. It is filed as in vitro ADME. On the set-up: purchased Promega V5111. Particulars: 40 µg mL^-1 trypsin, SDPR-TB1G2 on 293F cells, then 5 mM DTT and iFluor 647 anti-6xHis staining.
T3 sequence (P00761 9-231): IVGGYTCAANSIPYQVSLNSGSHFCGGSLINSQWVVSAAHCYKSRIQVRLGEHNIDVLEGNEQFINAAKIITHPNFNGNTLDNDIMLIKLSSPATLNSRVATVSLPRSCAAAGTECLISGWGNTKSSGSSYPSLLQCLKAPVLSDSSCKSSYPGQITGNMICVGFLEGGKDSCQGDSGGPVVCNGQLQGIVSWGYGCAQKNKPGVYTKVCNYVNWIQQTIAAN
Data set [10] concerns the target T4, chymotrypsin (Bos taurus, UniProt P00766).
T4 construct: purchased Promega V1062
In words: Protease stability in surface display (SDPR), chymotrypsin. It is filed as in vitro ADME. The note with it: 40 µg mL^-1 chymotrypsin, SDPR-TB1G2 on 293F cells, then 5 mM DTT and iFluor 647 anti-6xHis staining.

Data set [11] addresses T2, YAP:TEAD. It is filed as cell-based. On the set-up: endogenous in cells; host or cells: HeLa cells. Particulars: HeLa cells, 5 µM optide with 5 µM dfTAT, 90 min; versus dfTAT alone, P < 0.0001.
Target sequence in this assay (P28347 whole entry): as the sequence (P28347 whole entry) above
Data set [12] deals with T3, trypsin.

T1 sequence (P28347 209-426): as the sequence (P28347 209-426) above

As to `CC[C@H](C)[C@@H]1NC(=O)[C@H](CC(=O)O)NC(=O)CNC(=O)[C@H](CCCCN)NC(=O)[C@H](CCCCN)NC(=O)[C@@H]2CSSC[C@@H](C(=O)N3CCC[C@H]3C(=O)O)NC(=O)[C@H](Cc3ccccc3)NC(=O)[C@H](CC(C)C)NC(=O)[C@@H]3CSSC[C@H](NC(=O)[C@H](CSSC[C@H](NC(=O)[C@H](CCC(=O)O)NC(=O)[C@H](CCCCN)NC(=O)[C@H](C)NC(=O)[C@H](CCCNC(=N)N)NC(=O)[C@H](CCC(=O)O)NC(=O)[C@@H](NC(=O)[C@H](Cc4ccc(O)cc4)NC(=O)[C@H](CCC(=O)O)NC(=O)[C@H](CC(=O)O)NC(=O)[C@@H]4CCCN4C(=O)[C@H](CO)NC(=O)CN)[C@@H](C)CC)C(=O)N2)NC(=O)[C@H](CCC(N)=O)NC1=O)C(=O)N[C@@H](CC(C)C)C(=O)N[C@@H](CCCNC(=N)N)C(=O)N[C@@H](Cc1ccc(O)cc1)C(=O)N[C@@H](Cc1ccccc1)C(=O)N[C@@H](CCC(=O)O)C(=O)N[C@@H](CCC(=O)O)C(=O)N[C@@H](CO)C(=O)NCC(=O)N[C@@H](CC(=O)O)C(=O)N1CCC[C@H]1C(=O)N[C@@H](CC(N)=O)C(=O)N[C@@H](C(C)C)C(=O)N[C@@H](CCSC)C(=O)N[C@@H](CC(C)C)C(=O)N[C@@H]([C@@H](C)CC)C(=O)N3` [TB1G1], in [1], the “TEAD concentration at which binding was still detectible” value was 64 pM and the “TEAD concentration of peak signal:noise” value amounted to 8 nM. Further, the “inhibition of FLAG-YAP co-immunoprecipitation with Myc-TEAD” value in data set [2] (293T cell lysate, 30 min at 4 °C) is “dose-dependent inhibition”. Also, the “reduction with 10 mM DTT” value in data set [3] is on record as “complete”. Further, the “inhibition of YAP:TEAD-dependent cell staining” value in data set [4] is “inhibited YAP:TEAD-dependent cell staining”. For the compound `CC[C@H](C)[C@H](NC(=O)[C@H](Cc1ccc(O)cc1)NC(=O)[C@H](CCC(=O)O)NC(=O)[C@H](CC(=O)O)NC(=O)[C@@H]1CCCN1C(=O)[C@H](CO)NC(=O)CN)C(=O)N[C@@H](CCC(=O)O)C(=O)N[C@@H](CCCNC(=N)N)C(=O)N[C@@H](C)C(=O)N[C@@H](CCCCN)C(=O)N[C@@H](CCC(=O)O)C(=O)N[C@H]1CSSC[C@@H]2NC(=O)[C@H](CCC(N)=O)NC(=O)[C@H]([C@@H](C)CC)NC(=O)[C@H](CC(=O)O)NC(=O)[C@H](CCC(N)=O)NC(=O)[C@H](CCCCN)NC(=O)[C@H](CCCCN)NC(=O)[C@H](CSSC[C@@H](C(=O)N3CCC[C@H]3C(=O)O)NC(=O)[C@H](Cc3ccccc3)NC(=O)[C@H](CC(C)C)NC(=O)[C@@H]3CSSC[C@H](NC2=O)C(=O)N[C@@H](CC(C)C)C(=O)N[C@@H](CCCNC(=N)N)C(=O)N[C@@H]([C@@H](C)CC)C(=O)N[C@@H](Cc2ccccc2)C(=O)N[C@@H](CC(=O)O)C(=O)N[C@@H](CCC(=O)O)C(=O)N[C@@H](CO)C(=O)N[C@@H](CCCCN)C(=O)N[C@@H](CC(=O)O)C(=O)N2CCC[C@H]2C(=O)N[C@@H](CC(N)=O)C(=O)N[C@@H](C(C)C)C(=O)N[C@@H](CCSC)C(=O)N[C@@H](CC(C)C)C(=O)N[C@@H]([C@@H](C)CC)C(=O)N3)NC1=O` [TB1G2-W40P], the melting temperature entry in data set [5] is on record as “no melting temperature could be determined”. In addition, the “thermostability by circular dichroism” value in data set [6] was “identical before (Pre) and after (Post) incubation at 95 °C”. Take `CC[C@H](C)[C@H](NC(=O)[C@H](Cc1ccc(O)cc1)NC(=O)[C@H](CCC(=O)O)NC(=O)[C@H](CC(=O)O)NC(=O)[C@@H]1CCCN1C(=O)[C@H](CO)NC(=O)CN)C(=O)N[C@@H](CCC(=O)O)C(=O)N[C@@H](CCCNC(=N)N)C(=O)N[C@@H](C)C(=O)N[C@@H](CCCCN)C(=O)N[C@@H](CCC(=O)O)C(=O)N[C@H]1CSSC[C@@H]2NC(=O)[C@H](CCC(N)=O)NC(=O)[C@H]([C@@H](C)CC)NC(=O)[C@H](CC(=O)O)NC(=O)[C@H](CCC(N)=O)NC(=O)[C@H](CCCCN)NC(=O)[C@H](CCCCN)NC(=O)[C@H](CSSC[C@@H](C(=O)N[C@@H](Cc3c[nH]c4ccccc34)C(=O)O)NC(=O)[C@H](Cc3ccccc3)NC(=O)[C@H](CC(C)C)NC(=O)[C@@H]3CSSC[C@H](NC2=O)C(=O)N[C@@H](CC(C)C)C(=O)N[C@@H](CCCNC(=N)N)C(=O)N[C@@H]([C@@H](C)CC)C(=O)N[C@@H](Cc2ccccc2)C(=O)N[C@@H](CC(=O)O)C(=O)N[C@@H](CCC(=O)O)C(=O)N[C@@H](CO)C(=O)N[C@@H](CCCCN)C(=O)N[C@@H](CC(=O)O)C(=O)N2CCC[C@H]2C(=O)N[C@@H](CC(N)=O)C(=O)N[C@@H](C(C)C)C(=O)N[C@@H](CCSC)C(=O)N[C@@H](CC(C)C)C(=O)N[C@@H]([C@@H](C)CC)C(=O)N3)NC1=O` [TB1G2]: the “stability under intracellular reducing conditions, surface displayed” value in [7] is “no effect on TB1G2 stability”. In [8], the cell penetration result is listed as “failed to demonstrate cell penetration; also recorded: not yet cell penetrant”. In [3] (10 mM glutathione), the “stability under intracellular reducing conditions, soluble” value is given as “no effect on TB1G2 stability”. Further, in data set [3], the “reduction with 10 mM DTT” value is “incomplete reduction”. Further, the melting temperature entry in [5] is “no melting temperature could be determined”. Also, in data set [9], the “protease stability in surface display, trypsin” value is “no change in anti-6xHis staining”. Moreover, in data set [6], the “thermostability by circular dichroism” value was “no evidence of altered TB1G2 structure up to 95 °C; also recorded: identical before (Pre) and after (Post) incubation at 95 °C”. In data set [10], the “protease stability in surface display, chymotrypsin” value is recorded as “no change in anti-6xHis staining”. In data set [4], the “inhibition of YAP:TEAD-dependent cell staining” value is “much higher potency”. In addition, in [11], the “YAP:TEAD PLA speckles per nucleus” value is recorded as “reduction in speckles”.

For Beta/delta-agatoxin-6 [Peptide 3], the “Trypsin Resistance” value in data set [12] is reported as 102%.

Regarding “GSAPPCKRDVDCSFECPKGGFCNDRLGTCDCF (also: bicyclic or more (positions not given here)) [Peptide 1, Putative defensin-like protein 257]”, the “Trypsin Resistance” value in data set [12] worked out at 90%. The same measure, in the same setting: for “GSDLVCYCRKRGCKRREHMNGTCRRGHLMYTLCCR (also: bicyclic or more (positions not given here)) [Peptide 10, Alpha-defensin 13]” the value was 43%; for “GSGICACRRRFCLNFEQFSGYCRVNGARYVRCCSRR (also: bicyclic or more (positions not given here)) [Peptide 9, Corticostatin-6]”, 65%. Turning to “GSKDYCPGICNVAAVPDCDTLCISLGYSGGYCRAGRICCCNPK (also: bicyclic or more (positions not given here)) [Peptide 7, Uncharacterized protein]”, the “Trypsin Resistance” value in data set [12] is on record as 96%.

Regarding “GSKEICERPNGSCRDFCLETEIHVGRCLNSQPCCLPL (also: bicyclic or more (positions not given here)) [Peptide 4, Beta-defensin 108B]”, in [12], the “Trypsin Resistance” value amounted to 95%.

Consider “GSPMTCEQAMASCEHTMCGYCQGPLYMTCIGITTDPECGLP (also: bicyclic or more (positions not given here)) [Peptide 6, Mating pheromone Er-2/Er-9]”, for which the “Trypsin Resistance” value in [12] came out at 97%. Regarding “GSRGQCWSYSNCRAVCRDEGYVSGHCNYFGGACWCAS (also: bicyclic or more (positions not given here)) [Peptide 13, Putative uncharacterized protein]”, in data set [12], the “Trypsin Resistance” value is reported as 52%. Same read-out and setting: for “GSSVPCVSTRGSCKPPAPACCHPCASCQCRFFRSACSCRVLNVNC (also: bicyclic or more (positions not given here)) [Peptide 12, Agouti-signaling protein]” the value was 60%; for “GSVDGCQETCTKMIRCQFFTYSLFPEDCRGEKCKCSLR (also: bicyclic or more (positions not given here)) [Peptide 16, Plasma kallikrein]”, 50%.

As to “GSYTDCTESGQNLCLCEGSNVCGKGNKCILGSQGKDNQCVTG (also: bicyclic or more (positions not given here)) [Peptide 5, Hirudin-PA]”, the “Trypsin Resistance” value in data set [12] was 75%. Take “H-GSPDEYIERAKECCKKGDIQCCLRYFEESGDPNVMLICLACP-OH (disulfide 13-21, 14-41, 22-38) [TB1G1-F38A]”: the “inhibition of FLAG-YAP co-immunoprecipitation with Myc-TEAD” value in data set [2] is listed as “not”. In the case of Turripeptide IX-01 [Peptide 8], the “Trypsin Resistance” value in [12] stood at 96%. With U9-theraphotoxin-Cj1a [Peptide 11], in data set [12], the “Trypsin Resistance” value is recorded as 46%. Regarding “Venom defensin-like peptide A [Peptide 2]”, the “Trypsin Resistance” value in data set [12] was determined as 84%.
